Data as given in PubChem BioAssay (NCI).
Values joined by “and” are separate entries in the source; they are usually repeats but may differ in a detail not shown here. Equal entries are not always repeated.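 These data come from cells grown in 96-well plates and exposed to compound for 48 hours at five concentrations. GI50 = concentration required for 50% inhibition of growth. TGI: total growth inhibition.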

What was measured:
Test in all cases: inhibition of tumour cell growth, NCI panel, 48 h
DLD-1 colon = tested on: DLD-1 colon
DMS 114 small cell lung = tested on: DMS 114 small cell lung
DMS 273 small cell lung = tested on: DMS 273 small cell lung
KM20L2 colon = tested on: KM20L2 colon
LXFL 529 NSCLC = tested on: LXFL 529 NSCLC
M19-MEL melanoma = tested on: M19-MEL melanoma
XF 498 CNS = tested on: XF 498 CNS
SNB-78 CNS = tested on: SNB-78 CNS
MDA-N = tested on: MDA-N

| SMILES | TGI (DLD-1 colon) | TGI (DMS 114 small cell lung) | TGI (DMS 273 small cell lung) | TGI (KM20L2 colon) | TGI (LXFL 529 NSCLC) | TGI (M19-MEL melanoma) | TGI (XF 498 CNS) [µM] | TGI (SNB-78 CNS) [µM] | TGI (MDA-N) [µM] | further results |
| --- | --- | --- | --- | --- | --- | --- | --- | --- | --- | --- |
| CC(=O)OCC1OC(OC2CC3C(C)(C)C(O)CC[C@]3(C)C3CCC45CC4(CC[C@H]5C(C)CC(O)C4OC4(C)C)[C@]23C)C(O)C(O)C1O (some centres not stated) | 14.9 µM and 28.8 µM | 11.3 µM and 21.3 µM | 15.1 µM and 15.7 µM | 15.6 µM and 24.2 µM | 12.2 µM and 12.6 µM | 10.6 µM and 12.6 µM | 14.3 | – | – | GI50 (DLD-1 colon): 14 µM; GI50 (DMS 114 small cell lung): 6.7 µM; GI50 (DMS 273 small cell lung): 4.44 µM; GI50 (KM20L2 colon): 11.9 µM; GI50 (LXFL 529 NSCLC): 2.92 µM; GI50 (M19-MEL melanoma): 3.7 µM |
| CCCCOC(=O)NC(=O)c1cn(CCSCCOC(=O)NCCCCCCNC(=O)OCCSCCn2cc(C(=O)NC(=O)OCCCC)c(=O)[nH]c2=O)c(=O)[nH]c1=O | > 100 µM | > 100 µM | > 100 µM | > 100 µM | > 100 µM | > 100 µM | – | > 100 | – | – |
| NC(=O)C(c1ccccc1)N1CCOCC1 (configuration not stated) | > 100 µM | > 100 µM | > 100 µM | > 100 µM | > 100 µM | > 100 µM | – | > 100 | – | – |
| c1ccc2c(c1)[nH]c1cnc3c4cccnc4[nH]c3c12 | 33.5 µM | 37.4 µM | – | – | 35.5 µM | 31.5 µM | – | 46.6 | – | – |
| CC(=O)OC1CC2(O)C3CCC4CC(O)CCC4(C)C3CCC2(C)C1C1=CC(=O)OC1 (configuration not stated) | – | – | – | – | – | – | – | – | 0.317 | – |
| C/C(=N\N=C(/[Se])N1CC2CCC(CC2)C1)c1ccccn1 | 1.96 µM | < 0.0229 µM | 1.79 µM | 0.682 µM | 0.0256 µM | 0.559 µM | 0.0981 | 2.88 | 2.6 | – |
| O=C(C(=O)N1CC2C=CC1CC2)c1c[nH]c2ccccc12 (configuration not stated) | > 100 µM | > 100 µM | > 100 µM | > 100 µM | > 100 µM | > 100 µM | – | > 100 | – | – |
| COc1cc(/C=C2\CCC(CN(C)C)C2=O)ccc1OC(=O)c1ccccc1 (configuration not stated) | 16.1 µM | 40.9 µM | 27.4 µM | 30.3 µM | 9 µM | 24.7 µM | 34.6 | 39.9 | 29.6 | – |
| O=C1c2c(n(Cc3ccccc3)c(=O)n2Cc2ccccc2)C(=O)N1Cc1ccccc1 | > 100 µM | > 100 µM | > 100 µM | > 100 µM | > 100 µM | > 100 µM | 98.5 | > 100 | – | – |
| Cc1ccc(SC2=CC(=O)c3nc4ccccc4c4ccnc2c34)cc1 | – | – | – | – | – | – | – | – | > 75 | GI50 (MDA-N): 28.8 µM |
| COc1ccccc1NC(=O)C1=C(C)NC(C)=C(C(=O)Nc2ccccc2OC)C1c1ccc(C)cc1 | – | > 100 µM | > 100 µM | > 100 µM | > 100 µM | > 100 µM | > 100 | > 100 | – | – |
| COc1ccc(/C=C\c2cc(OC)c(OC)c(OC)c2)cc1OC(=O)CCC(=O)O | – | – | – | – | – | – | – | – | > 100 | – |
| O=C1C(=O)N(c2ccc(Cl)cc2Cl)C(=O)C(=O)C1c1nc2ccccc2o1 | > 100 µM | – | > 100 µM | > 100 µM | > 100 µM | > 100 µM | > 100 | > 100 | – | – |
| CC1=CCC23C(C1)OC(Br)(C=CC2(C)O)C3(C)C (configuration not stated) | > 100 µM | > 100 µM | > 100 µM | – | – | > 100 µM | > 100 | > 100 | – | – |
| CC(=O)CCCCO | – | > 100 µM | > 100 µM | – | > 100 µM | > 100 µM | > 100 | > 100 | – | – |
| O=C1CN(C(=O)c2ccccc2)Cc2[nH]c3ccccc3c21 | > 100 µM | > 100 µM | > 100 µM | > 100 µM | > 100 µM | > 100 µM | > 100 | > 100 | – | – |
| CCOC(=O)C1SC(=Nc2ccc(Cl)c(Cl)c2)N=C1C (configuration not stated) | > 100 µM | – | > 100 µM | 78.8 µM | > 100 µM | > 100 µM | > 100 | – | – | – |
| CN1CC(C(=O)C2C(=O)c3ccccc3C2=O)C(=O)C(=O)C(C(=O)C2C(=O)c3ccccc3C2=O)C1 (configuration not stated) | > 100 µM | > 100 µM | > 100 µM | – | – | – | > 100 | – | – | – |
| CC(C)(C)C(=O)ON1N=NC2C3CC(OCc4ccccc4)(OCc4ccccc4)C(O3)C21 (configuration not stated) | 44.6 µM | – | 51.2 µM | 77.5 µM | 25.8 µM | 30 µM | 33.5 | > 100 | – | – |
| Cc1ccc2c(c1)NC(=O)CC(c1ccccc1)=N2 | – | – | – | – | – | – | – | – | 60.7 | – |
| COc1ccc(/C=C/C(=O)Oc2cc(O)cc(O)c2)cc1 | – | – | – | – | – | – | – | – | > 100 | – |
| Cc1cc(NS(=O)(=O)c2ccc(NC(=O)c3cccc4c(Nc5ccc(S(=O)(=O)N=C(N)N)cc5)c5ccccc5nc34)cc2)no1 | > 100 µM | – | > 100 µM | > 100 µM | > 100 µM | – | – | > 100 | – | – |
| c1ccc(-c2nc(-c3ccccc3)c(-c3ccccc3)[nH]2)cc1 | – | – | – | – | – | – | – | – | > 100 | – |
| O=C(O)c1cc(N=Cc2ccccc2O)cc(C(=O)O)c1 | – | – | – | – | – | – | – | – | > 100 | – |
| Fc1ccc(C2SCc3nc4ccccc4n32)cc1 (configuration not stated) | > 100 µM | > 100 µM | – | – | > 100 µM | > 100 µM | > 100 | > 100 | – | – |
| O=C(OCC1CO1)c1cccs1 (configuration not stated) | > 100 µM | > 100 µM | > 100 µM | > 100 µM | > 100 µM | > 100 µM | > 100 | > 100 | – | – |
| Nc1c(C(=O)Nc2ccccc2)[n+]([O-])c2ccccc2[n+]1[O-] | 37.6 µM | 26.8 µM | 46.9 µM | 34.7 µM | 28.1 µM | 32.2 µM | 32.6 | 40.4 | – | – |
| COc1cc2c(cc1O)CC13CCC(=O)N1CCc1cc(OC)c(O)c-2c13 (configuration not stated) | > 68.1 µM | > 68.1 µM | – | > 68.1 µM | > 68.1 µM | > 68.1 µM | – | > 68.1 | – | – |
| CCN(CCCl)CCCNc1c2ccccc2nc2ccc(OC)cc12 | – | 1.76 µM | – | 2.2 µM | 1.7 µM | – | – | – | – | GI50 (DLD-1 colon): 174 µM; GI50 (DMS 273 small cell lung): 177 µM; GI50 (M19-MEL melanoma): 323 µM; GI50 (SNB-78 CNS): 585 µM; GI50 (XF 498 CNS): 381 µM |
| CC(=O)OC1(C)C(=O)OC1(C)C(C)=O (configuration not stated) | > 100 µM | > 100 µM | > 100 µM | > 100 µM | > 100 µM | > 100 µM | – | > 100 | – | – |
